Values quoted from earlier work as cited in article PMC11014758 (ACS infectious diseases, 2024).

What was measured:
LasR [1] = molecular target: T1, LasR (Pseudomonas aeruginosa, UniProt P25084); settings: same strain, analogous assay conditions; ref Moore et al. 2015 [15]
LasR [2] = molecular target: T1, LasR; settings: same strain, analogous assay conditions; ref Moore et al. 2015 [15]; remark: listed apart in the source

T1 sequence (P25084 whole entry): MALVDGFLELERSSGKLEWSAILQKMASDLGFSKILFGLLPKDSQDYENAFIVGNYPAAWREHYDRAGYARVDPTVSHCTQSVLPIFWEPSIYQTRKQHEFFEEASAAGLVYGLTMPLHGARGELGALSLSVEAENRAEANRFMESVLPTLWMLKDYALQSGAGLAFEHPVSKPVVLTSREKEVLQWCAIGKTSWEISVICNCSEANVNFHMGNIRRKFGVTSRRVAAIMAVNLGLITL

Row | Compound | IC50 (LasR [1]) | Maximum Activation (LasR [2]) | Maximum Inhibition (LasR [1])
1 | CCCCCCCCCNC(=O)CC(=O)c1ccccc1 [V-06–018] | 5.2 µM |  | 
2 | CCCCCCCCCC(=O)CC(=O)N[C@H]1CCOC1=O [OdDHL, N-(3-oxo)-dodecanoyl L-homoserine lactone] |  | 100% | 
3 | chlorolactone [CL] | 21 µM |  | 55%
